Experiment [1] addresses T1, Acetylcholinesterase (Homo sapiens, UniProt P22303). Briefly: Inhibition of AChE activity.
For experiment [2], the target named is T1, Acetylcholinesterase. The experiment in a line: Inhibition of AChE at 0.03 mM.
The target of experiment [3] is T1, Acetylcholinesterase. Briefly: Inhibition of AChE at 0.3 mM.

T1 sequence (P22303 whole entry): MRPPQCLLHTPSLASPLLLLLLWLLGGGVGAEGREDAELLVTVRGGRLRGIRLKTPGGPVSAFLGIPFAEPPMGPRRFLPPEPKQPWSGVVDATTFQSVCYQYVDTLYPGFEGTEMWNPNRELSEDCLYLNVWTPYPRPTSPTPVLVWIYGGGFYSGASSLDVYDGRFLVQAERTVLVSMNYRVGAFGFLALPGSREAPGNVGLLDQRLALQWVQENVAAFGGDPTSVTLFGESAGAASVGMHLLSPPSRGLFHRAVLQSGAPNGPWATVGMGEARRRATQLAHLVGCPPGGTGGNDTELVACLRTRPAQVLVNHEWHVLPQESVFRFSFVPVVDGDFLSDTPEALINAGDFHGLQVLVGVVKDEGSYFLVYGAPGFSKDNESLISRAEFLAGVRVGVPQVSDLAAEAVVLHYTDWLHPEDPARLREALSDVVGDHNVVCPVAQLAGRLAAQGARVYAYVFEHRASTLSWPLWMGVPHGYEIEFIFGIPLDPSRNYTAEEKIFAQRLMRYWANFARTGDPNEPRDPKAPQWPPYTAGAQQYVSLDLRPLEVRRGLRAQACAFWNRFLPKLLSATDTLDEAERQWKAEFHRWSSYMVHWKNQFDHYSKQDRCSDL

The molecule `COc1cc2ccnc(C(O)c3ccccc3OC)c2cc1OC` (stereo unspecified) had an IC50 against Acetylcholinesterase [1] of 6.94 µM. Moreover, at Acetylcholinesterase [1] (concentration not given here), the inhibition came to 0%.
On Acetylcholinesterase [1], `COc1ccc(C(O)c2nccc3cc(OC)c(OC)cc23)cc1OC` (stereo unspecified) displayed an IC50 of 10.7 µM.
On Acetylcholinesterase [1], `COc1ccc(Cc2nccc3cc(OC)c(OC)cc23)cc1OC` [PAPAVERINE] registered a concentration for half-maximal inhibition (IC50) of 24.3 µM.
In the case of `COC(=O)N1CCc2c(OC)c(OC)c(OC)c3c2C1Cc1cc(OC)c(OC)cc1-3` (stereo unspecified), the inhibition was found to be 7.3% at Acetylcholinesterase [2] and 15.9% against Acetylcholinesterase [3].
